The record followed here is ChEMBL document CHEMBL1201862, “PubChem BioAssay data set” (2004).

Each structure is given as a SMILES string. The source made the active and inactive calls.

Assay [1] addresses Intestinal-type alkaline phosphatase (Homo sapiens, UniProt P09923). In words: inhibition of human intestinal alkaline phosphatase – biochemical, dose response (AID 488876). The format is functional.
In assay [2] the target is T1, Alkaline phosphatase, tissue-nonspecific isozyme (Homo sapiens, UniProt P05186).
T1 sequence (P05186 whole entry): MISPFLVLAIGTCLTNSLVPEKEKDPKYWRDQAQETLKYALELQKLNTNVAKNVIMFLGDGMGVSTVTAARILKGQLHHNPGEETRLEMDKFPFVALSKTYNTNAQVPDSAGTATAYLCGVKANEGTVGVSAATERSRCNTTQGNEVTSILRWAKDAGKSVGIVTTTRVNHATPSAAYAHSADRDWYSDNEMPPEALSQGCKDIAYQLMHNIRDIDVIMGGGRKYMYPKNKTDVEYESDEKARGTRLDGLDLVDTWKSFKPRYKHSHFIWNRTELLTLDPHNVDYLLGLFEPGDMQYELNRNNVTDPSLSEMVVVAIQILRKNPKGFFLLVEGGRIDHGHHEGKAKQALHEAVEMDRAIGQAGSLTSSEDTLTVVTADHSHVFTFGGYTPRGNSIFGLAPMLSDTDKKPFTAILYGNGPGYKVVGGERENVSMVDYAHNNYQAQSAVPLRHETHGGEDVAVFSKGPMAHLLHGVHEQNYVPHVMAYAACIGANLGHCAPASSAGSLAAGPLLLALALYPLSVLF
In words: TNAP enzyme inhibition by screening hits, dose response, selectivity assay for mouse IAP inhibitor project, biochemical, human TNAP, uHTS hits (AID 488906). The format is functional.

The target of assay [3] is Intestinal-type alkaline phosphatase (Mus musculus, UniProt P24822). In words: PubChem AID 488785. The format is functional.
The target of assay [4] is G-protein coupled receptor 55 (Homo sapiens, UniProt Q9Y2T6). The experiment in a line: GPR55 agonists via beta-arrestin recruitment, primary screen, imaging, U2OS cells, beta-arrestin-GFP redistribution (AID 1961). The format is functional. Background: Recruitment of arrestin is a read-out of receptor activation apart from second messengers.
Assay [5] addresses T2, Ubiquitin-conjugating enzyme E2 N (Homo sapiens, UniProt P61088).
T2 sequence (P61088 whole entry): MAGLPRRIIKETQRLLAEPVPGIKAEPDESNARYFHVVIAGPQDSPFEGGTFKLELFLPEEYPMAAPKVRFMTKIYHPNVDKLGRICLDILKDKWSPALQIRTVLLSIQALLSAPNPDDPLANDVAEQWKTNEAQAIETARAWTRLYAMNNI
The assay is classed as functional.

Assay [6] has as its target T3, Heat shock factor protein 1 (Mus musculus, UniProt P38532).
T3 sequence (P38532 whole entry): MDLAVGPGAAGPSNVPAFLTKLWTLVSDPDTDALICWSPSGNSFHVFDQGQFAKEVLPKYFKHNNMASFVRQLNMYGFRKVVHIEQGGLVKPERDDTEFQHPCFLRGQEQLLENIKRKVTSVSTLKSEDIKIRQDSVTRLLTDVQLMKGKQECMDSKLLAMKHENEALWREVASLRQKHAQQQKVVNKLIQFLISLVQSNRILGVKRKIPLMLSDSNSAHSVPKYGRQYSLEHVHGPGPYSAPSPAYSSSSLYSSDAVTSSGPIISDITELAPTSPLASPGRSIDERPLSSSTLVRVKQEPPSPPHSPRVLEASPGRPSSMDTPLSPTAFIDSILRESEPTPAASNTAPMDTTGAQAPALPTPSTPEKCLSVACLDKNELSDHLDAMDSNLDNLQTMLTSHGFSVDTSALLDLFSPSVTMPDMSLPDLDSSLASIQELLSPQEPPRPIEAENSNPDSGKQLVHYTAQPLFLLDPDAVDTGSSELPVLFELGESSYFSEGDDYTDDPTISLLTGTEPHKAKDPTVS
In words: inhibition of MG132-induced HSE-luciferase signal, confirmation, cell-based, NIH3T3, luminescence, dose retest (AID 2382).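 Also: NIH3T3 fibroblasts with HSF1-driven luciferase reporter stressed by proteasome inhibitor MG132; luminescence from HSF1-driven luciferase expression after 8 hours of MG132 stress.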 The format is functional.

Assay [7] addresses T2, Ubiquitin-conjugating enzyme E2 N. The assay is classed as functional. This is another data set of the same source.
Another assay deals with T4, Bcl-2-related protein A1 (Mus musculus, UniProt Q07440).
T4 sequence (Q07440 whole entry): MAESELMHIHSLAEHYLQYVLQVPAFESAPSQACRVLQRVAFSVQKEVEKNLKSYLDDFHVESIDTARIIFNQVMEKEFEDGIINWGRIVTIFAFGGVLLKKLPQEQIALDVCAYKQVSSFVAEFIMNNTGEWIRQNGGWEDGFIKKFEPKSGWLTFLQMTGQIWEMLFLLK
The assay is classed as functional.

Assay [8] deals with T5, Calpain-2 catalytic subunit (Sus scrofa, UniProt P43367).
T5 sequence (P43367 whole entry): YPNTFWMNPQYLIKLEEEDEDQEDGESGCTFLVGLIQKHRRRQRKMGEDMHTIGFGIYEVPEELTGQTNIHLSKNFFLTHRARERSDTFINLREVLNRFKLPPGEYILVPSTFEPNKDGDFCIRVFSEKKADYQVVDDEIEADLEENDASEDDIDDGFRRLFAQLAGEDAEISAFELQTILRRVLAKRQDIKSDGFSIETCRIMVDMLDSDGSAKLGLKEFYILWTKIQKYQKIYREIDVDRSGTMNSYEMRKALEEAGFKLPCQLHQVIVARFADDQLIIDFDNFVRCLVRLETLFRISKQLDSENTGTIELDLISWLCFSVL
The experiment in a line: pig calpain II inhibitor potency, dose response, biochemical, fluorogenic peptide substrate (AID 1420). The format is functional.

Assay [9] concerns the target Voltage-dependent T-type calcium channel subunit alpha-1H (Homo sapiens, UniProt O95180). The format is functional.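 Also: channel activity triggered by adding a high calcium stimulation buffer.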
The nature of assay [10]: THP-1 cell cytotoxicity, dose response, cytotoxicity control for non-replicating M. tuberculosis project (AID 489025). The assay is classed as functional.
The nature of assay [11]: HepG2 cell cytotoxicity, dose response, cytotoxicity control for non-replicating M. tuberculosis project (AID 489018). The format is functional. Particulars: Mycobacterium tuberculosis.
The nature of assay [12]: Vero E6 cell cytotoxicity, dose response, cytotoxicity control for non-replicating M. tuberculosis project, secondary assay (AID 492998). As to conditions: Vero C1008. The assay is classed as functional, VeroE6.
A short description of a further assay: cells. The assay is classed as functional.
Assay [13] concerns the target T6, Microphthalmia-associated transcription factor (Homo sapiens, UniProt O75030).
T6 sequence (O75030 whole entry): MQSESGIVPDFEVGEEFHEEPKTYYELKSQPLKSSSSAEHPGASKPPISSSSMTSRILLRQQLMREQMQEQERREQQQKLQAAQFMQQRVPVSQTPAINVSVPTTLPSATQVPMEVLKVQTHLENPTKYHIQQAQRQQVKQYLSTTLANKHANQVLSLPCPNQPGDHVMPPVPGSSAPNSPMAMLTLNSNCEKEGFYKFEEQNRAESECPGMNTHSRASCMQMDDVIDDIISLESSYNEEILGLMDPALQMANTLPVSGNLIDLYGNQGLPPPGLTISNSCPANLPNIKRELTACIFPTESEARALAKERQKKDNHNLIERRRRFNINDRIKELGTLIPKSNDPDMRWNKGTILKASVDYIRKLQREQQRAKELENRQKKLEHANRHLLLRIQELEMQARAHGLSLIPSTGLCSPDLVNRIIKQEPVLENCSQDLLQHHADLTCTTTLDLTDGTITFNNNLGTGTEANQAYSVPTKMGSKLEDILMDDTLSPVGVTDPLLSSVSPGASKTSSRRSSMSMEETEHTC
The experiment in a line: TRPM1 promoter luciferase signal decrease, dose response, MITF inhibitor project, cell-based, SK-MEL-5, cherry-picked, set 3 (AID 493073).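 Also: SK-MEL-5 melanoma cells with luciferase driven by the MITF target TRPM1 promoter.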 The format is functional.

Assay [14] has as its system HEK293. In words: cells. The format is functional, cell-based. Particulars: Homo sapiens.
The test system of assay [15] is HEK293. In words: cells. The assay is classed as functional, cell-based. Particulars: Homo sapiens. The source holds these as a separate data set.
In assay [16] the target is Nucleotide-binding oligomerization domain-containing protein 2 (Homo sapiens, UniProt Q9HC29). The experiment in a line: NOD2 signaling inhibitors, cell-based, luminescence, uHTS, HEK293 (AID 1566). The format is functional.
Assay [17] concerns HEK293. In words: NOD2 signaling inhibitors in MDP-stimulated cells, cell-based, uHTS, luminescence (AID 2001). As to conditions: Homo sapiens. The assay is classed as functional.
For assay [18], the system named is HEK293. In words: cells. Particulars: Homo sapiens. The format is functional, cell-based. This is another data set of the same source.
The subject of assay [19] is HEK293. In words: NOD1 signaling inhibitors, primary screen, cell-based, luminescence, uHTS (AID 1578). The format is functional. As to conditions: Homo sapiens.

Chain of Intestinal-type alkaline phosphatase (Homo sapiens, UniProt P09923) (P09923 whole entry): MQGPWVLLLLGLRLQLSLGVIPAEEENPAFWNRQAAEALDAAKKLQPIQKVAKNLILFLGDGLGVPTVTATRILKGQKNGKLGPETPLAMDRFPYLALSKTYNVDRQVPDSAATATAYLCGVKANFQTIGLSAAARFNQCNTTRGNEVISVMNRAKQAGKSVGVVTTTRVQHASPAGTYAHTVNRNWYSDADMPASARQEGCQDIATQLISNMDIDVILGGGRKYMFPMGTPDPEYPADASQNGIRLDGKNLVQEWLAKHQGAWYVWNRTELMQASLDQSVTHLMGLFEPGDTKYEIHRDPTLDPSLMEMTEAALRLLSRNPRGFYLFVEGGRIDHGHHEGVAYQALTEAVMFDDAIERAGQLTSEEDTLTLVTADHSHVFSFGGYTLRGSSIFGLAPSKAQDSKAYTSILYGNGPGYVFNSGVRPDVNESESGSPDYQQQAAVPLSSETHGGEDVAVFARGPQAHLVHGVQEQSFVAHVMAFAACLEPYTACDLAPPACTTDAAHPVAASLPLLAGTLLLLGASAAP
Chain of Nucleotide-binding oligomerization domain-containing protein 2 (Q9HC29 whole entry, the tested form may be a part): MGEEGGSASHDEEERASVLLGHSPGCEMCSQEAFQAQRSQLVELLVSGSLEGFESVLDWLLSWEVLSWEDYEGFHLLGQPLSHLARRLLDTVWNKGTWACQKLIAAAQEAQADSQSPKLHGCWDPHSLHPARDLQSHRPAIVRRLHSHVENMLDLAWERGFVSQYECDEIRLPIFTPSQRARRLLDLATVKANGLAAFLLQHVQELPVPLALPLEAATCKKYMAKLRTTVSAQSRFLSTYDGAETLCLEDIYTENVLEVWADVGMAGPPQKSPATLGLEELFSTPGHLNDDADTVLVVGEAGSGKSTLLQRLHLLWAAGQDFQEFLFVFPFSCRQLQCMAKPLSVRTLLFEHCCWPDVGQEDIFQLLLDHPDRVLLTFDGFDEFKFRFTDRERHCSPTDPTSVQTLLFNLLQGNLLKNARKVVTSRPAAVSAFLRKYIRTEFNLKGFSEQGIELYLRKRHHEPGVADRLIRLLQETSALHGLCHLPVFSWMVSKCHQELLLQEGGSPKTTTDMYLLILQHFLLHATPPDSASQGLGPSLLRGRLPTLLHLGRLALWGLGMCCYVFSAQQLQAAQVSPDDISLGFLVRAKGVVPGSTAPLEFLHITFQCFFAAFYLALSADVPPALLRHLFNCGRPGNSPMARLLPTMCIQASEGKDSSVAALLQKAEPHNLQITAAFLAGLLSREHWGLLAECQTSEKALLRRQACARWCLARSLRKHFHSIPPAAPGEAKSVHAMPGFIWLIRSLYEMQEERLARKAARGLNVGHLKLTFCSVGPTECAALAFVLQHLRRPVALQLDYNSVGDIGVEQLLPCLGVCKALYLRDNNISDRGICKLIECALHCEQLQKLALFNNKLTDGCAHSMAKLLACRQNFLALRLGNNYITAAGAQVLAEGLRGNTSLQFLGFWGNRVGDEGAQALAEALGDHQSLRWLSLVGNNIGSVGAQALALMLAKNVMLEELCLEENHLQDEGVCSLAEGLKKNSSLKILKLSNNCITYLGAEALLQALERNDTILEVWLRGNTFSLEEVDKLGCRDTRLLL
Chain of Intestinal-type alkaline phosphatase (Mus musculus, UniProt P24822) (P24822 whole entry): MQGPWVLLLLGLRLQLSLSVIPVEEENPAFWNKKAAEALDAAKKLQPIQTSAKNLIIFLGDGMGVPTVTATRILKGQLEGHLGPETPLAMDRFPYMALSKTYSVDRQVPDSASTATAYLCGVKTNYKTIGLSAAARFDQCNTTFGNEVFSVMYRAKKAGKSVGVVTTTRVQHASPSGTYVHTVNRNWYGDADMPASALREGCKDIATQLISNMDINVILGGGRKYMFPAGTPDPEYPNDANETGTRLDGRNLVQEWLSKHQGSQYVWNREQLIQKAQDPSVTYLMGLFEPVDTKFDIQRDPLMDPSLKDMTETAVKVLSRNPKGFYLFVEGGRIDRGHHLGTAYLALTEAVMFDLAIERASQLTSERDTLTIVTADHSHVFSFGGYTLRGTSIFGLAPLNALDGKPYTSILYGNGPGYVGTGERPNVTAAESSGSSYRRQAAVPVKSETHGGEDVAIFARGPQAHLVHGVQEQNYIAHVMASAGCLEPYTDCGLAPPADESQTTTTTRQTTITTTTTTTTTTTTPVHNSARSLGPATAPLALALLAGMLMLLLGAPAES
Chain of G-protein coupled receptor 55 (Q9Y2T6 whole entry): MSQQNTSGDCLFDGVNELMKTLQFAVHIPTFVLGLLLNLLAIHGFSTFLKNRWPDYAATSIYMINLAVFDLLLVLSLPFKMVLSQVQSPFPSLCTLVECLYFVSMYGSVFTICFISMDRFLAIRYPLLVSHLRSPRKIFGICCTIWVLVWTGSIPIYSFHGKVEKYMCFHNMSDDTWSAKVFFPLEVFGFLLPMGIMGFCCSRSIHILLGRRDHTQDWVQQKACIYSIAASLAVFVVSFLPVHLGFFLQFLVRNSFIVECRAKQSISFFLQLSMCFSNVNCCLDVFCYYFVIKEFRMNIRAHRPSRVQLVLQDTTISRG
Chain of Voltage-dependent T-type calcium channel subunit alpha-1H (O95180 whole entry): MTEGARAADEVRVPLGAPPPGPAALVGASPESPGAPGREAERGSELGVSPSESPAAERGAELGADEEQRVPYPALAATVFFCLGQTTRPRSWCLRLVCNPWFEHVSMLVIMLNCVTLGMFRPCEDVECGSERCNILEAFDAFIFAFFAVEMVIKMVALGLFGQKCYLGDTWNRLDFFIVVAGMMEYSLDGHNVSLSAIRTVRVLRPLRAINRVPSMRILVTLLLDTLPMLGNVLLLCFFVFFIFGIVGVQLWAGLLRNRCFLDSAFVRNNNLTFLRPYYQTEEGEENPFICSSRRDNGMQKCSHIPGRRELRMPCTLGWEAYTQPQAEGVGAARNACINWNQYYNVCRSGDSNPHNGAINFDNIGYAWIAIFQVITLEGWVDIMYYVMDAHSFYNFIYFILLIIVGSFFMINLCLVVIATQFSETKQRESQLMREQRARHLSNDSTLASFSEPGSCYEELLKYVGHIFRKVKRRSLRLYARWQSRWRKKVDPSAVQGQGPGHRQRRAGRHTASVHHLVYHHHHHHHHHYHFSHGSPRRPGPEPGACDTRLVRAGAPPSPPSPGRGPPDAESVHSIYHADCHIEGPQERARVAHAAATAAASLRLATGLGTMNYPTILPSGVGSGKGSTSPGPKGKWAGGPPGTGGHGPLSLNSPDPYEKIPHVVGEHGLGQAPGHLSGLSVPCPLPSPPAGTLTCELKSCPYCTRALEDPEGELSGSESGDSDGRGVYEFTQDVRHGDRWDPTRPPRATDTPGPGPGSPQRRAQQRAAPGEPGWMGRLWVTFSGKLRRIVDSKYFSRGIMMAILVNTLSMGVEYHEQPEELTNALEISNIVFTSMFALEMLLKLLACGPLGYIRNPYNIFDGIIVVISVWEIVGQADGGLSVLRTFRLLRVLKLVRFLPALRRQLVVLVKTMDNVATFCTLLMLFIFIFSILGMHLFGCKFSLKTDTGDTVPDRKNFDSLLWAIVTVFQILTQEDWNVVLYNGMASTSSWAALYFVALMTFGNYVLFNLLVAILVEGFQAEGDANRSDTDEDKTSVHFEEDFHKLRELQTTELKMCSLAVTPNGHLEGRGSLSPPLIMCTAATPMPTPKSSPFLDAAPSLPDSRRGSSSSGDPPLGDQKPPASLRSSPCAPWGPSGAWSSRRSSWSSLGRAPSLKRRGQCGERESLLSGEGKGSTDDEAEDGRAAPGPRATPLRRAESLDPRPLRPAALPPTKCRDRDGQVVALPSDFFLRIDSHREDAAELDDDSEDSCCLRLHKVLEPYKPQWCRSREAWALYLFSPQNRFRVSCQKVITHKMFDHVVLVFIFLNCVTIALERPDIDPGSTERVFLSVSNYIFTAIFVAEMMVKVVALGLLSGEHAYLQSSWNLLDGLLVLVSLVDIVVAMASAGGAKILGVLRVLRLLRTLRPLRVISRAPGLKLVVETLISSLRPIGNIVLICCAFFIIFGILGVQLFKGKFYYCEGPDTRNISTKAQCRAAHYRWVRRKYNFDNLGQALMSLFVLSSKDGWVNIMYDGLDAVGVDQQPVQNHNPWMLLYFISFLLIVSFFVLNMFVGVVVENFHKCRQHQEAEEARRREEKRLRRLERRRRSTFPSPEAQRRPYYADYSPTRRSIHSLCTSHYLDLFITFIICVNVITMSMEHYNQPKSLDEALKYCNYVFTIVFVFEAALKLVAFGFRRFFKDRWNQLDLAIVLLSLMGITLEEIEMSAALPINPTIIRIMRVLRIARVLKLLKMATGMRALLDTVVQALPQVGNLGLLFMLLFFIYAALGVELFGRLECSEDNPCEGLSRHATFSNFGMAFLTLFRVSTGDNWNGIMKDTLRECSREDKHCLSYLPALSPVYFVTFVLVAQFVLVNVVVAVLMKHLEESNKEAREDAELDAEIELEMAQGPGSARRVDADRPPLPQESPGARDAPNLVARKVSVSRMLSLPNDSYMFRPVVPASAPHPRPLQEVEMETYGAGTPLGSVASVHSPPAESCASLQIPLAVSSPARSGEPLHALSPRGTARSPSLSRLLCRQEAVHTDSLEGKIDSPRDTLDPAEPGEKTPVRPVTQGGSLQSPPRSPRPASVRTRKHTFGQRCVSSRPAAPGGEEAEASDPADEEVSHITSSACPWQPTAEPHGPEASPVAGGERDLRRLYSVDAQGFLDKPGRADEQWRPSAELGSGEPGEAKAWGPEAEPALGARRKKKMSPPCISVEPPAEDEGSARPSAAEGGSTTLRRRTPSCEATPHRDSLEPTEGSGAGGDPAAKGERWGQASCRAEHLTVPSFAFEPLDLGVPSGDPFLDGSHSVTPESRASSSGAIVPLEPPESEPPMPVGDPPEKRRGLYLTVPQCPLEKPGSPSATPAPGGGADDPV

By IC50 is commonly meant the point on the concentration scale where inhibition reaches its midpoint. Take `NS(=O)(=O)c1ccc(NC(=S)NC(=O)/C=C/c2ccco2)cc1`: the IC50 in assay [1] is 8.09 µM (active); in [2] it was > 100 µM (inactive); in assay [3], 1.87 µM (active).
As a reminder, the EC50 is the concentration at which the effect is half-maximal. As for `Cc1ccc2c(Cl)cc(Cl)c(OCC(=O)Nc3ccc(C)c(S(=O)(=O)N(C)C)c3)c2n1`, the EC50 in [4] is > 32 µM (inactive).
As to `Oc1[nH]c2ccccc2c1N=NC(S)=NCC1CCCO1` (stereo unspecified), the IC50 in assay [5] is 0.967 µM (active); in [7], 1.73 µM (active); at Bcl-2-related protein A1 it was > 20 µM (inactive). For the same compound, in [6], the EC50 is reported as > 195 µM (not active).
As to `O=C(CCCCCN1C(=O)c2ccccc2C1=O)Nc1ccc(S(=O)(=O)N2CCCCC2)cc1`, the IC50 was 1.34 µM (active) in assay [5], 2.38 µM (not active) in assay [8], 0.982 µM (active) in assay [7] and > 20 µM (inactive) on Bcl-2-related protein A1.
A word on the CC50: it is the concentration that lowers cell viability or growth by half. As for `CCC1CCCCN1S(=O)(=O)c1ccc(C(=O)Nc2nnc(-c3cccs3)o2)cc1` (stereo unspecified), the EC50 in assay [9] was 1.44 µM (active). Also, the CC50 was 3.49 µM (active) in assay [10], 9.09 µM (active) in assay [11] and 2.43 µM (active) in assay [12]. The IC50 in the assay “cells” was 6.49 µM (active).
As a reminder, the AC50 is the concentration at which the activity in the assay is half-maximal. `CN1C/C(=C/c2cccnc2)C(=O)/C(=C/c2cccnc2)C1`: the CC50 in assay [10] was 6.26 µM (active); in assay [11], 8.54 µM (active); in assay [12], > 20 µM (active). The AC50 in assay [13] is 5.31 µM (active). Moreover, the IC50 in “cells” was 16.8 µM (active).
`O=C(CCl)Nc1ccccc1Sc1ccc(Cl)cc1`: the IC50 in the assay with HEK293 [14] is > 20 µM (inactive); with HEK293 [15] it was 4.56 µM (active); with HEK293 [17], 9.91 µM (active); with HEK293 [18], > 20 µM (inactive). In addition, the EC50 in assay [16] is 6.69 µM (active); with HEK293 [19], 7.79 µM (active).
Consider `CCOC(=O)c1cc(-c2ccncc2)nc2c1c(C)nn2C`, for which the IC50 in [5] was 5.32 µM (active); in assay [7], 11.3 µM (active); at Bcl-2-related protein A1, > 20 µM (inactive).
